Assays:
[1] = Antibodies specific for the lectin in sera of treated rats (ELISA); format: in vivo, rat
Lewis rats = assay: Rat heart transplantation, lectin combined with cyclosporin; format: in vivo; conditions: Group A: Cyclosporin 0, Lectin 2.5 mg/kg/day
Source text: The heart transplant model of paragraph A was used. Five groups of 5 Lewis rats received hearts from Brown Norway rats and were given the following drugs by group, as shown in Table 8:
Cyclosporin i.p. was started the day of the graft and continued daily. Recombinant lectin was started two days prior to transplant and continued daily.

[2] = tested on: Jurkat T-cells on inflamed rat brain vascular endothelium; assay: Binding to inflamed brain endothelium sections; format: cell-based, human; conditions: 250 μg/ml lectin
mice immunized with AChR = assay: EAMG: muscle acetylcholine receptor content and Ig-complexed AChR; format: in vivo, mouse; conditions: for % of AChR Complexed with Ig / Carcass AChR Content: 10 days after injection
Method: After the observation period, the animals were sacrificed, skinned, and eviscerated; and a cholinergic receptor (AChR) extract was prepared as described by Lefvert, A. K. et al., Scand. J. Immunol. supra for determination of total AChR content and Ig-complexed AChR content, as described therein.
Briefly, to determine total AChR content, known portions of the AChR extracts were incubated with a ten-fold excess of ^125I-alpha-bungarotoxin for 1 hour at 37° C. so as to label the receptor for quantitation. The mixture was subjected to gel filtration on Sephacryl G200 to separate free and bound toxin. To determine the amount of AChR complexed to IgG or IgM antibodies, the extract was incubated with a ten-fold excess of labeled bungarotoxin overnight at 4° C.; anti-mouse IgG or IgM was then added and the samples incubated overnight at 4° C., followed by separation of the precipitates, washing and counting.

Lectin: Soluble 14 kD β-galactoside-binding HL-60/placenta lectin of FIG. 1 (SEQ ID NO:2), prepared recombinantly in E. coli
antibodies specific for the lectin in sera of treated rats [1]: did not contain | Survivors on Day 16 (Lewis rats): 0/5 | Binding to Inflamed Brain Endothelium [2]: did not bind | % of AChR Complexed with Ig (mice immunized with AChR; AChR + lectin 0.1 μg): 48 ± 6.0% | Carcass AChR Content (mice immunized with AChR; AChR + lectin 0.1 μg): 0.8 ± 0.4 mol × 10^−11 | % of AChR Complexed with Ig (mice immunized with AChR; AChR + lectin 1 μg): 52 ± 2.0% | Carcass AChR Content (mice immunized with AChR; AChR + lectin 1 μg): 1.4 ± 0.3 mol × 10^−11 | % of AChR Complexed with Ig (mice immunized with AChR; AChR + lectin 5 μg): 44 ± 5.0% | Carcass AChR Content (mice immunized with AChR; AChR + lectin 5 μg): 0.9 ± 0.5 mol × 10^−11 | % of AChR Complexed with Ig (mice immunized with AChR; AChR + lectin 15 μg): 11 ± 10.7% | Carcass AChR Content (mice immunized with AChR; AChR + lectin 15 μg): 3.5 ± 0.4 mol × 10^−11 | % of AChR Complexed with Ig (mice immunized with AChR; AChR + lectin 25 μg): 11 ± 7.8% | Carcass AChR Content (mice immunized with AChR; AChR + lectin 25 μg): 3.2 ± 0.6 mol × 10^−11 | AChR loss and amount of Ig-complexed AChR (mice immunized with AChR; single subcutaneous doses of about 7.5-12 μg): lowered

Source: patent publication US6406679B1, “Use of HL-60-related lectins in drug delivery and detection of lectin-expressing cells” (Incyte Pharmaceuticals, Inc., priority 1992, dated 2002)
